Columns and labels:
TICAE cells = experiment: Cytokine detection (Magnetic Luminex) in supernatant after irradiation, TICAE cells; format: cell-based, human
Protocol: (§1) TICAE and TIME cells were seeded in a 6-well plate at a density of 2.5×10^5 cells/well in 5 to 6 biological replicates. Two to three days later, cells reached 100% confluence. At 30 minutes before X-ray exposure, cells were refreshed with medium with or without 100 μM TAT-Gap19 (Genosphere Biotechnologies, Paris, France). At 24 h, 48 h, 72 h and 7 d after irradiation, the supernatant was collected. Medium was changed only for the 7 d time point experiment at the fourth day with fresh medium alone or with medium supplemented with 100 μM TAT-Gap19. For the simultaneous detection of multiple cytokines in the supernatants, the Magnetic Luminex® Assay (R&D systems, Minneapolis, […]) was used following manufacturer's instructions. Briefly, supernatants, standards and microparticles were incubated into a 96-well plate which was pre-coated with cytokine-specific antibodies. The immobilized antibodies were able to bind the cytokines of interest after 2 h incubation, then the plate was washed and incubation with a biotinylated antibody cocktail specific to the cytokines of interest was performed for 1 h. A second wash was performed to remove the unbound biotinylated antibodies. Further, a streptavidin-phycoerythrin conjugate was added to each well to bind to the biotinylated antibodies. After a final wash, the microparticles were resuspended in buffer and read using the Luminex® MAGPIX Analyzer (R&D systems, Minneapolis, […]).
In order to normalize to cell number, DAPI staining was performed for the 48 h after irradiation time point. Briefly, cells were washed with phosphate buffered saline (PBS) and fixed with 4% paraformaldehyde (PFA) for 15 minutes at room temperature. Afterwards, the cells were washed with PBS and stained with 1 μg/mL 4′,6-Diamidine-2′-phenylindole (DAPI) dissolved in 1×TBST, 0.005 g/v % TSA blocking powder (PerkinElmer, FP1012) (TNB). After one hour, cells were washed with PBS and DAPI signals were visualized with the Nikon Eclipse Ti automated inverted wide-field epifluorescence microscope equipped with a 5× magnification (Plan Fluor, numerical aperture 0.6) dry objective and a Nikon IE2000-E camera controlled by the MS Elements software. The intensity of the DAPI signals was determined with the FIJI software. Cell count for 24 h after irradiation experiment was performed by Moxi Z Mini Automated Cell Counter (ORFLO Technologies, Ketchum, Id., USA) after trypsinization. For the 72 h and 7 d post-irradiation cell counts, we used IncuCyte ZOOM™ phase contrast imaging based on 49 images taken per well with the 10× objective.

TIME cells = experiment: IGFBP-7 and GDF-15 multiplex-based assays, TIME cells; format: cell-based, human; conditions: 7 d p.i.
Protocol: as §1

[1] = system: primary brain microvascular endothelial cells (pBMECs); experiment: γ-H2AX counts after local 3×3 mm X-ray irradiation (irradiated and bystander zones), pBMECs; format: cell-based, mouse; conditions: 1 Gy, 3 h post-irradiation
Protocol: Cortices, from 10-12 week old mice, were isolated by removing cerebellum, striatum, optic nerves, brain white matter, outer vessels and meninges. After homogenization with a Dounce homogenizer in WBB (Washing Buffer B: HMS, 10 mM Hepes, 0.35 g/L NaHCO3, 0.1% BSA), the homogenate was mixed with 30% dextran in WBB and centrifuged at 3000×g for 25 min at 4° C. The pellet containing the vascular component was then resuspended in WBB and filtered through a 60 μm NY60 Nylon Net Filter (Millipore, Darmstadt, Germany). Following centrifugation at 1000×g for 7 min at room temperature, the pellet was digested in collagenase/dispase supplement with DNase I (Roche Diagnostics, Vilvoorde, Belgium) and TLCK (Tosyl, Lysin chloromethyl ketone, sigma-aldrich) for 33 min at 37° C. in a shaking water bath. The digested capillary suspension was then seeded after multiple washing steps on wells coated with matrigel or glass coated with Corning Cell-Tak (VWR, Leuven, Belgium). For the isolation of intact capillaries the protocol was aborted just before the digestion step.
A defined area of the cell culture dishes were exposed to X-rays (1Gy or 20 Gy) by using a small animal radiation research platform (SARRP, Xstrahl, 220 kV, 13 mA), making use of a 3×3 mm collimator. Whole dish irradiation was done using a 10×10 cm broad-beam collimator, while localized Irradiation was performed with a 3×3 mm collimator. A Gafchromic RTQA2 film, with a sensitivity of 0.02 Gy, was placed underneath the cell dishes in order to delineate the irradiated zone.
Cells were fixed for 25 min with 4% formaldehyde (VWR) and blocked for 30 min with blocking buffer (5% normal goat serum, 1% bovine serum albumin (BSA), 0.2% Triton X-100 in PBS D+). Overnight incubation with primary antibody (1/500 anti-γ-H2AX in dilution buffer, 1/10 blocking buffer in PBS D+) was followed by a 1 h incubation with 1/400 XX-biotin-goat-anti-mouse antibody in dilution buffer, followed by a 1 h incubation with 1/400 streptavidin-alexa488 in PBS D+. Nuclei were stained with 1 μg/mL DAPI in PBS D+ for 10 min and cells were kept in PBS D+ supplemented with NaN3 at 4° C. All steps except the overnight incubation which was carried out at 4° C., were carried out at room temperature and cell cultures were rinsed thoroughly with PBS D+ between all incubation steps. Imaging was performed with an automated BD Pathway 435 imaging system (10× objective, 10×10 montage resulting in an overall image size of 8.5×6.5 mm). We then quantified the number of γ-H2AX-foci positive nuclei in the directly irradiated and bystander areas and expressed the count as a percentage relative to the number of nuclei and subtracted the percentage of background γ-H2AX signal in non-irradiated paired control cultures for each experiment. For counting γ-H2AX foci, images were thresholded to remove background pixel noise below the foci level. Where applicable, results were normalized against vehicle (bar charts with a 100% vehicle bar without statistical variability or a horizontal line).

[2] = 100 μM TAT-Gap19, 5 Gy, 72 h and 7 d p.i.

Substance: TAT-Gap19: connexin mimetic peptide, amino-acids 128-136 of the CL of Cx43 (SEQ ID NO: 2), Gap19 linked to TAT sequence; Cx43 hemichannel inhibitor (YGRKKRRQRRRKQIEIKKFK)
- MCP-1 readout (TICAE cells; 100 μM TAT-Gap19, 0 Gy control and 0.1 Gy, 72 h p.i.): increased
- IL-8 (radiation-induced increase) (TICAE cells; [2]): significantly decreased these responses
- MCP-1 (radiation-induced increase) (TICAE cells; [2]): significantly decreased these responses
- VCAM-1 (radiation-induced increase) (TICAE cells; [2]): significantly decreased these responses
- all tested inflammatory markers (TICAE cells; 100 μM TAT-Gap19, 24 h time point): increased all tested markers
- Endothelin-1 (radiation-induced increase) (TICAE cells; 100 μM TAT-Gap19, 7 d p.i.): significantly reduced these responses
- IL-11 (radiation-induced increase) (TICAE cells; 100 μM TAT-Gap19, 7 d p.i.): significantly reduced these responses
- Endothelin-1 readout (TICAE cells; 100 μM TAT-Gap19, control and 0.1 Gy): decreased
- GDF-15 (TIME cells; 100 μM TAT-Gap19, 0, 0.1 and 5 Gy): significantly inhibited these responses in all treated conditions
- IGFBP-7 control readout (TIME cells; 100 μM TAT-Gap19, 0 Gy control): increased
- IGFBP-7 (TIME cells; 100 μM TAT-Gap19, 0.1 Gy): acted in a significantly inhibitory way
- IGFBP-7 (radiation-induced increase) (TIME cells; 100 μM TAT-Gap19, 5 Gy): not inhibited
- γ-H2AX counts in the bystander zone (normalized to vehicle) [1]: only had effect in the bystander zone
- γ-H2AX counts in the irradiated area (normalized to vehicle) [1]: only had effect in the bystander zone

From patent US20200384072A1, “THERAPY OF IONIZING RADIATION-INDUCED DISORDERS” (SCK-CEN, priority 2019, published 2020)
